One may read the melting point as the temperature of the solid-liquid transition.

Molecules are shown by their SMILES. Bounds are passed on as bounds.

With `CCOC(=O)C1=C(NC(=O)Nc2cc(C(=O)OC(C)C)c(Cl)cc2F)CCC1`, the melting point was in the range of 146 to 149 °C. Turning to `CCOC(=O)c1cn(-c2cnnn2C)c2nc(Cl)c(F)cc2c1=O`, the melting point is 251 °C. Next, `Cc1nc(N2CCC(Cc3ccc(F)cc3)C2=O)sc1C(=O)NCc1ccc(F)cc1` (centres undefined): 196 to 197 °C; `Cc1cc(CN(C(=O)CCl)c2c(C)cccc2C)on1`: 78 to 82 °C; `NC(=O)[C@@H]1CCCN1C(=O)CNC(=O)OCc1ccccc1`: 142 to 143 °C. Turning to `CCOC(=O)C(=O)C(C#N)c1ccc(Cl)cc1` (centres undefined), the melting point lay within 135 to 136 °C. Regarding `CC1(C)C(=O)N(CCCN(CCCN2C(=O)c3ccccc3C(C)(C)C2=O)Cc2ccccc2)C(=O)c2ccccc21`, the melting point turned out to be 108 °C. `COc1ccc(C2=NN(c3nc4ccccc4s3)C(=O)[C@H]3CC=CC[C@@H]23)cc1OC` (relative stereo) gave a melting point of 176 to 177 °C. The compound `COc1cccc2c1nc(C(F)F)n2-c1nc(N2CCOCC2)nc(N2CCC(NC(=O)CCl)CC2)n1` registered a melting point of 252 to 254 °C. `Nc1ccn(C2OC(CO)C(O)C2O)c(=O)c1F` (centres undefined) showed a melting point of 234 to 236 °C. Turning to `O=C(NCC12CC3CC(CC(C3)C1)C2)c1cc(CC[C@H](O)CO)ccc1Cl`, the melting point was 145 to 147 °C. The same measure for `C=CCc1cc(NC(C)=O)ccc1OCC1(O)CN2CCC1CC2` (centres undefined): 170 to 172 °C; for `Cc1cc(C(C)(C)C)c(O)c(S(=O)(=O)Nc2ccc([N+](=O)[O-])cc2Cl)c1`: 239 to 243 °C; for `CC(CCc1ccccc1)NC(CO)C(O)c1ccc(S(C)(=O)=O)cc1` (centres undefined): 120 to 122 °C. On to `O=[N+]([O-])c1c(F)cc(N2CCOCC2)cc1F`, for which the melting point lay within 112 to 114 °C.

With `O=C(O)COc1cc(Cl)sc1C(=O)O`, the melting point was 214 °C. The same measure for `COC(=O)C(C)(C)Cc1cc2ccc(O)cc2n1C`: 125 to 126 °C; for `Cc1cc(F)ccc1-c1cc(-c2ccccc2)nc(C(C)C)c1C=O`: 110 to 112 °C; for `CCN(CC)C(=O)N1CCc2c([N+](=O)[O-])cc3[nH]c(=O)c(=O)[nH]c3c2C1`: above 300 °C. The compound `COc1ccc(Nc2ccccc2)c2ccccc12` yielded a melting point of 108 to 110 °C. On to `O=C(NCCc1ccccc1)C1CCc2ccccc2C1` (centres undefined), for which the melting point was in the range of 86 to 87 °C.

Compound `CC(=O)CCC(=O)N1CCN(c2c(F)cc(N3CC(CNC(C)=O)OC3=O)cc2F)CC1` (centres undefined) returned a melting point of 52 to 56 °C.

For the compound `Fc1cccc(COc2ccc(Nc3ncnc4sc(C#Cc5ccccn5)cc34)cc2Cl)c1`, the melting point was found to be 180 °C. Turning to `Cc1cc(C(=O)CBr)c(C)o1`, the melting point is 56 to 58 °C.

`CCCCCCC(C)(C)c1cc(OCc2ccccc2)c(C2=C(CC(=O)O)CCC(C)C2)c(OCc2ccccc2)c1` (centres undefined): the melting point fell in the range of 69 to 70 °C. The compound `COc1cccc(C2CSc3ccccc3NC2=O)c1` (centres undefined) returned a melting point of 198 °C. As for `CC(C)=C1C(=O)Nc2cc3[nH]c(-c4ccncc4)nc3cc21`, the melting point was above 300 °C. In turn, `NC(=O)c1ccc(Br)c(OC(F)F)c1Br` yielded a melting point of 186 °C. `CCN(CCO)C(=O)c1ccc(C(=O)N2CCN(c3ncccc3NC(C)C)CC2)cc1` came in with a melting point of 115 °C. In turn, `Cc1ccc(C2COc3c(C)c(C)c(N)c(C)c32)cc1` (centres undefined) returned a melting point of 121 to 122 °C. The same measure for `CC1CCC2(C(=O)O)CCC3(C)C(=CCC4C5(C)CC(O)C(O)C(C)(CO)C5CCC43C)C2C1C` (centres undefined): 300 to 310 °C; for `CC(C)N(C[C@@H](O)[C@@H](C(=O)[C@H](CC(N)=O)NC(=O)c1ccccc1)C(N)c1ccccc1)NC(=O)OC(C)(C)C` (some centres undefined): 182 to 185 °C.

For `CCCN(CC(O)C(Cc1ccccc1)NC(=O)C(C)CS(C)(=O)=O)S(=O)(=O)c1ccc(OC)cc1` (centres undefined), the melting point was 88 to 92 °C. Next, `CC(Oc1ccc(F)cc1)C1CN(c2ccccc2)CCN1` (centres undefined): 80 to 82 °C. In turn, `CCn1ncc2c(NCc3ccncc3)c3ccccc3nc21` came in with a melting point of 191 to 192 °C. In the case of `O=c1nc(N2CCC=C(c3ccccc3)C2)sc2ncccc12`, the melting point was in the range of 167 to 169 °C. `CC(=C1C(=O)N(c2cccc(C)c2)c2ccccc21)N(C)C` yielded a melting point of 96 to 99 °C. Regarding `Nc1nc2ccccc2c2c1ncn2CCOCCCc1cccnc1`, the melting point is 125 to 128 °C. As for `O=C1C/C(=C\c2ccccc2[N+](=O)[O-])C(=O)N1`, the melting point came to 148 °C. Consider `O=S1(=O)C(c2ccsc2)=CCC=C1c1ccsc1`, for which the melting point lay in the range of 162 to 164 °C. The compound `COc1cc2sc(C#N)cc2cc1OC(F)F` came in with a melting point of 99 to 101 °C.

For `CC(c1ccc(F)cc1)N1CC(C)(C)C(Oc2ccc(C#N)c(C(F)(F)F)c2)C1=O` (centres undefined), the melting point is 82 to 83 °C. On to `O=C(CSCCN1C(=O)c2ccccc2C1=O)c1ccc(F)cc1`, for which the melting point is 124 to 126 °C. The compound `CN(CCOc1ccc(C=C2SC(=O)NC2=O)cc1)c1nc2ccccc2o1` had a melting point of 227 to 229 °C. On to `Cc1nsnc1-n1cc(C(=O)O)c(=O)c2cc(F)c(Cl)nc21`, for which the melting point was 247 to 249 °C. `COc1ccc2cc3c(c(-c4ccc(C)cc4)c2c1)CNC3=O` gave a melting point of 298 to 301 °C. The same measure for `CC(C)(C)N1CC(O)C1`: 42 to 43 °C; for `O=c1[nH]c2ncc(-c3ccc(-c4cn[nH]c4)cc3)nc2n1CC1CCCCC1`: 305 to 307 °C. In turn, `O=C(O)c1cc2cc(CCNS(=O)(=O)c3ccc(Cl)cc3)ccc2o1` displayed a melting point of 193 to 195 °C. `CC1=C(CC(=O)N(C)O)c2cc(F)ccc2/C1=C\c1ccc(S(C)=O)cc1` (centres undefined) returned a melting point of 156 to 160 °C. `COc1cc(C=CC(=O)Nc2c(OC)nc3c(C)cc(C)cc3c2-c2ccccc2Cl)cc(OC)c1OC(C)=O` returned a melting point of 230 to 231 °C.

The compound `c1ccc(CSc2nc3cc4c(cc3[nH]2)OCCO4)nc1` returned a melting point of 155 to 156 °C. Take `CCCN(C(N)=S)C(COC1CCCCO1)c1ccccc1` (centres undefined): the melting point was determined as 82 °C. On to `O=[N+]([O-])c1ccc(OC2OC(CO)C(O)C2O)cc1` (centres undefined), for which the melting point fell in the range of 156 to 158 °C. Compound `CCN(CC)CC(=O)Nc1ccc2c(c1)C(=O)c1cc(NC(=O)CN(CC)CC)ccc1C2=O` came in with a melting point of 241 °C. On to `O=c1cnc(-c2ccc([N+](=O)[O-])cc2)c[nH]1`, for which the melting point is 336 to 338 °C. `COc1nn(CC(=O)C2CC2)c(=O)s1` yielded a melting point of 98 to 100 °C. The compound `O=C(Nc1ccccc1)Nc1cccc(-c2ccc(C(=O)N3CCN4CCC3CC4)o2)c1` had a melting point of 125 to 130 °C.

`CCCCCS(=O)(=O)NC(=O)/C=C/c1ccc(OCCCOCC2CC2)cc1Oc1ncc(C(F)(F)F)cc1Cl`: the melting point was 124 to 125 °C. Compound `C[C@@H]1CCC[C@H](C)N1CCN1CCN(CCCN2CCCCC2)C1=C(C#N)C#N` showed a melting point of 106 to 108 °C. For `Nc1nc2ccccc2c2c1nc(-c1ccccc1)n2CCCCNC(=O)Nc1ccc(F)cc1`, the melting point lay within 145 to 150 °C. The same measure for `CN(C)S(=O)(=O)c1cccc(Nc2ncc3cc4ccccc4n3n2)c1`: 191 to 193 °C; for `CC(C)(C)OC(=O)N1CC(CO)c2c1cc([N+](=O)[O-])c1ccccc21` (centres undefined): 176 °C; for `CCOc1ccc(-c2ccc3c(c2)C=C(C(=O)OC)CCN3)cc1OCC`: 159 to 164 °C.

For `Brc1ccc(-c2ccc3nncn3n2)cc1`, the melting point lay within 209 to 211 °C. For `O=c1c2c(n(-c3ccccc3)c3ncccc13)OC(CBr)C2` (centres undefined), the melting point fell in the range of 187 to 188 °C. The same measure for `COc1ccc(C2(O)CCC3(CC2)OCCO3)c2c1OCCO2`: 94 to 96 °C; for `COC(=O)c1cc(N)ccc1OC(C)=O`: 99 to 100 °C; for `CCCCOc1cc(/C=C(\OCC)C(=O)O)ccc1OCCc1ccc(N(C)S(=O)(=O)CCCC)cc1`: 144 °C. Next, `CCOC(=O)CCN(C(C)(C)C(=O)NO)S(=O)(=O)c1ccc(Oc2ccc(F)cc2)cc1`: 125 °C. `CCn1c(=O)n(Cc2ccccc2)c(=O)c2c(Cl)cc(Cl)cc21`: the melting point is 78 to 82 °C. `CCOC(=O)Cn1c(C(=O)OCC)c(O)c(O)c1C(=O)OCC` came in with a melting point of 121 to 122 °C.

For the compound `CCn1cnc2c(Cl)nc(Cl)nc21`, the melting point was 100 to 103 °C.

`CCCC(=O)Oc1cc(-c2nc3cc(F)ccc3s2)ccc1OC` showed a melting point of 125 °C. The same measure for `CCOC(=O)c1cn2c(nc1=O)CCCCC2`: 156 to 157 °C; for `O=C(Cn1c(-c2ccccc2)ccc(NC(=O)OCc2ccc(C(=O)O)cc2)c1=O)NC(Cc1ccccc1)C(=O)C(F)(F)F` (centres undefined): 214 to 216 °C; for `COc1cncnc1-c1ssc(=S)c1C`: 136 °C. Compound `CCOC(=O)C1=C[C@@H]2OC(C)=N[C@@H]2[C@@H](NC(=O)OC(C)(C)C)C1` displayed a melting point of 45 to 49 °C.

Turning to `CC#CCOc1ccc(S(=O)(=O)NC[C@@H](C(=O)NO)N2CCN(S(C)(=O)=O)CC2)cc1`, the melting point was determined as 150 °C. With `COC(CC[C@](C)(O)[C@@H](/C=C\C=C\c1ccccc1)Sc1ccccc1)OC` (racemic), the melting point was in the range of 59.5 to 61 °C.

In the case of `CC(=O)c1ccc(OCc2ccccc2)c2c1OC(C)(C)C(=O)N2`, the melting point was in the range of 124 to 126 °C. In turn, `NC(=O)c1cnc2cc(F)c(F)cc2c1` showed a melting point of 261 °C.

Compound `O=C(Cn1c(-c2nonc2NCCCO)nc2ccccc21)c1ccc(Cl)cc1` returned a melting point of 166 to 169 °C. Next, `CC(=O)OC1CC(=O)N1` (centres undefined): 152 to 154 °C; `COc1ccc(Nc2ccc(O)cc2)c(C(C)=O)c1`: 118 to 119 °C. With `CCc1nc2cnc3ccccc3c2s1`, the melting point fell in the range of 48 to 49 °C.

`CCOC(=O)CC[C@H](NC(=O)c1ccc(N)c(C)c1)C(=O)OCC`: the melting point lay in the range of 79 to 82 °C. In the case of `CCCOc1ccc(S(=O)(=O)NCCN(C)C)cc1-c1nc2cc(N)c(N)cc2c(=O)[nH]1`, the melting point is 202 to 204 °C.

`C#Cc1cc2c(cc1C=O)C(C)(C)CCC2(C)C` came in with a melting point of 94 to 94.6 °C.
